Laboratory results published in PubChem BioAssay AID1963870 (Molecular Pharmacology Branch, DTP, NCI, 2024).

System: 292921-168-R-J2-PDC KRAS tumor spheroid viability
Assay: Anticancer human tumor 292921-168-R-J2-PDC patient-derived pancreatic carcinoma cell line growth inhibition [KRAS2]
Conditions: spheroids with HUVEC and MSC; for IC50: curve of first compound; for viability, T/C: stronger effect = lower value
In short: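 Combination screen of spheroid viability in tumor-cell co-cultures with endothelial (HUVEC) and mesenchymal stem cell stroma. Each agent was tested in half-log dilutions, topping at clinical Cmax or at 10 microM without a known Cmax.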

[1] = second compound 0.1 µM, first compound 0.0316 µM
[2] = second compound 0.1 µM, first compound 0.1 µM
[3] = second compound 0.1 µM, first compound 0.316 µM
[4] = second compound 0.1 µM, first compound 1 µM
[5] = second compound 0.1 µM, first compound 3.16 µM
[6] = second compound 0.1 µM, first compound 10 µM
[7] = second compound 0.316 µM, first compound 0.0316 µM
[8] = second compound 0.316 µM, first compound 0.1 µM
[9] = second compound 0.316 µM, first compound 0.316 µM
[10] = second compound 0.316 µM, first compound 1 µM
[11] = second compound 0.316 µM, first compound 3.16 µM
[12] = second compound 0.316 µM, first compound 10 µM
[13] = second compound 1 µM, first compound 0.0316 µM
[14] = second compound 1 µM, first compound 0.1 µM
[15] = second compound 1 µM, first compound 0.316 µM
[16] = second compound 1 µM, first compound 1 µM
[17] = second compound 1 µM, first compound 3.16 µM
[18] = second compound 1 µM, first compound 10 µM
[19] = second compound 3.16 µM, first compound 0.0316 µM
[20] = second compound 3.16 µM, first compound 0.1 µM
[21] = second compound 3.16 µM, first compound 0.316 µM
[22] = second compound 3.16 µM, first compound 1 µM
[23] = second compound 3.16 µM, first compound 3.16 µM
[24] = second compound 3.16 µM, first compound 10 µM
[25] = second compound 10 µM, first compound 0.0316 µM
[26] = second compound 10 µM, first compound 0.1 µM
[27] = second compound 10 µM, first compound 0.316 µM
[28] = second compound 10 µM, first compound 1 µM
[29] = second compound 10 µM, first compound 3.16 µM
[30] = second compound 10 µM, first compound 10 µM
[31] = second compound 0.1 µM, first compound 0.000316 µM
[32] = second compound 0.1 µM, first compound 0.001 µM
[33] = second compound 0.1 µM, first compound 0.00316 µM
[34] = second compound 0.1 µM, first compound 0.01 µM
[35] = second compound 0.316 µM, first compound 0.000316 µM
[36] = second compound 0.316 µM, first compound 0.001 µM
[37] = second compound 0.316 µM, first compound 0.00316 µM
[38] = second compound 0.316 µM, first compound 0.01 µM
[39] = second compound 1 µM, first compound 0.000316 µM
[40] = second compound 1 µM, first compound 0.001 µM
[41] = second compound 1 µM, first compound 0.00316 µM
[42] = second compound 1 µM, first compound 0.01 µM
[43] = second compound 3.16 µM, first compound 0.000316 µM
[44] = second compound 3.16 µM, first compound 0.001 µM
[45] = second compound 3.16 µM, first compound 0.00316 µM
[46] = second compound 3.16 µM, first compound 0.01 µM
[47] = second compound 10 µM, first compound 0.000316 µM
[48] = second compound 10 µM, first compound 0.001 µM
[49] = second compound 10 µM, first compound 0.00316 µM
[50] = second compound 10 µM, first compound 0.01 µM
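Also: drug exposure lasted seven days after spheroids formed for three days.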
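For viability, T/C in this document: percent of DMSO vehicle control viability which is 100%.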

| Compound | IC50 (second compound 0.1 µM) [nM] | IC50 (second compound 0.316 µM) [nM] | IC50 (second compound 1 µM) [nM] | IC50 (second compound 3.16 µM) [nM] | IC50 (second compound 10 µM) [nM] | viability, T/C [1] [%] | viability, T/C [2] [%] | viability, T/C [3] [%] | viability, T/C [4] [%] | viability, T/C [5] [%] | viability, T/C [6] [%] | viability, T/C [7] [%] | viability, T/C [8] [%] | viability, T/C [9] [%] | viability, T/C [13] [%] | viability, T/C [14] [%] | viability, T/C [19] [%] | viability, T/C [20] [%] | viability, T/C [25] [%] | viability, T/C [26] [%] | other results |
| --- | --- | --- | --- | --- | --- | --- | --- | --- | --- | --- | --- | --- | --- | --- | --- | --- | --- | --- | --- | --- | --- |
| CC(C)NCC(C(=O)N1CCN(c2ncnc3c2C(C)CC3O)CC1)c1ccc(Cl)cc1 (stereo not given) + CC1OCC2(CCN(c3cnc(Sc4ccnc(N)c4Cl)c(N)n3)CC2)C1N | 5030 | 3620 | < 31.6 | < 31.6 | < 31.6 | 67.3 | 65.3 | 65 | 67 | 58 | 36.8 | 51.1 | 57 | 56.8 | 46.2 | 42.9 | 36.1 | 36.5 | 33.6 | 33.8 | viability, T/C [10]: 55.7%; viability, T/C [11]: 52.3%; viability, T/C [12]: 31.1%; viability, T/C [15]: 48.1%; viability, T/C [16]: 46.1%; viability, T/C [17]: 39.3%; viability, T/C [18]: 25.9%; viability, T/C [21]: 39.9%; viability, T/C [22]: 41.7%; viability, T/C [23]: 37.4%; viability, T/C [24]: 22.7%; viability, T/C [27]: 39.4%; viability, T/C [28]: 33.8%; viability, T/C [29]: 32.9%; viability, T/C [30]: 20.6% |
| CC(C)n1nc(-c2ccc3oc(N)nc3c2)c2c(N)ncnc21 + CC1OCC2(CCN(c3cnc(Sc4ccnc(N)c4Cl)c(N)n3)CC2)C1N | 1.06 | < 0.316 | < 0.316 | < 0.316 | < 0.316 | 20.8 | 19.1 |  |  |  |  | 18.4 | 16.6 |  | 17.4 | 14.5 | 14.9 | 12.5 | 12.8 | 11.3 | viability, T/C [31]: 66.5%; viability, T/C [32]: 51.4%; viability, T/C [33]: 35.4%; viability, T/C [34]: 29.4%; viability, T/C [35]: 48.7%; viability, T/C [36]: 38.5%; viability, T/C [37]: 30.5%; viability, T/C [38]: 21.6%; viability, T/C [39]: 44%; viability, T/C [40]: 36.4%; viability, T/C [41]: 26.1%; viability, T/C [42]: 19.3%; viability, T/C [43]: 32.3%; viability, T/C [44]: 28.3%; viability, T/C [45]: 23.7%; viability, T/C [46]: 16.6%; viability, T/C [47]: 27.2%; viability, T/C [48]: 27.8%; viability, T/C [49]: 20.1%; viability, T/C [50]: 17% |
| CC1(C)CCC(CN2CCN(c3ccc(C(=O)NS(=O)(=O)c4ccc(NCC5CCOCC5)c([N+](=O)[O-])c4)c(Oc4cnc5[nH]ccc5c4)c3)CC2)=C(c2ccc(Cl)cc2)C1 + CC1OCC2(CCN(c3cnc(Sc4ccnc(N)c4Cl)c(N)n3)CC2)C1N | 1610 | 1430 | < 31.6 | < 31.6 | < 31.6 | 77.7 | 81.6 | 71.8 | 69.8 | 21.9 | 11.7 | 59.7 | 65.9 | 64.2 | 46.5 | 51.4 | 38.8 | 40.2 | 33.3 | 32.8 | viability, T/C [10]: 58.9%; viability, T/C [11]: 29.6%; viability, T/C [12]: 7.43%; viability, T/C [15]: 46.1%; viability, T/C [16]: 42.9%; viability, T/C [17]: 17.8%; viability, T/C [18]: 7.41%; viability, T/C [21]: 37.6%; viability, T/C [22]: 39%; viability, T/C [23]: 14.1%; viability, T/C [24]: 7.38%; viability, T/C [27]: 33.2%; viability, T/C [28]: 34.7%; viability, T/C [29]: 13.1%; viability, T/C [30]: 1.65% |
| CCNC(=O)CC1N=C(c2ccc(Cl)cc2)c2cc(OC)ccc2-n2c(C)nnc21 (stereo not given) + CC1OCC2(CCN(c3cnc(Sc4ccnc(N)c4Cl)c(N)n3)CC2)C1N | 287 | 48.4 | < 31.6 | < 31.6 | < 31.6 | 69.1 | 60.6 | 48.1 | 40.1 | 29.4 | 27.5 | 53.5 | 45.5 | 31.4 | 45.6 | 43.7 | 37.4 | 34.6 | 33.8 | 31.1 | viability, T/C [10]: 31.7%; viability, T/C [11]: 25.1%; viability, T/C [12]: 19.7%; viability, T/C [15]: 33.5%; viability, T/C [16]: 31.6%; viability, T/C [17]: 19.9%; viability, T/C [18]: 18.3%; viability, T/C [21]: 26.2%; viability, T/C [22]: 23%; viability, T/C [23]: 20%; viability, T/C [24]: 16.1%; viability, T/C [27]: 28.4%; viability, T/C [28]: 23.1%; viability, T/C [29]: 20.9%; viability, T/C [30]: 17.3% |
| Cn1ncnc1[C@H]1c2n[nH]c(=O)c3cc(F)cc(c23)N[C@@H]1c1ccc(F)cc1 + CC1OCC2(CCN(c3cnc(Sc4ccnc(N)c4Cl)c(N)n3)CC2)C1N | > 100 | > 100 | 0.634 | < 0.316 | < 0.316 | 66.3 | 58.2 |  |  |  |  | 59.4 | 51.9 |  | 39.2 | 39.1 | 33.4 | 30.8 | 29.5 | 26.5 | viability, T/C [31]: 84.8%; viability, T/C [32]: 78.6%; viability, T/C [33]: 82.5%; viability, T/C [34]: 76.4%; viability, T/C [35]: 66.1%; viability, T/C [36]: 60.9%; viability, T/C [37]: 65%; viability, T/C [38]: 56%; viability, T/C [39]: 48.7%; viability, T/C [40]: 51.7%; viability, T/C [41]: 49.2%; viability, T/C [42]: 44.4%; viability, T/C [43]: 40.8%; viability, T/C [44]: 39%; viability, T/C [45]: 37.4%; viability, T/C [46]: 36.2%; viability, T/C [47]: 34.5%; viability, T/C [48]: 34.5%; viability, T/C [49]: 32%; viability, T/C [50]: 30.6% |
